Laboratory results: US7781474B2, “Inhibitors of hepatitis C virus replication” (InterMune, Inc., priority 2006, dated 2010)
Where a name gives a salt, the structure may show the parent alone.

Biological target: T1, NS3/NS4A-2 (Hepatitis C virus genotype 1a, UniProt P27958)
T1 construct: Recombinant E. coli or Baculovirus full-length NS3 was diluted to 3.33 μM with assay buffer; made in house; host or cells: E. coli or Baculovirus (insect cells)
Experiment: NS3 inhibition assay (NS3-NS4 protease assay)
Type: biochemical, hepatitis C virus (HCV)
Conditions: recombinant full-length NS3 (E. coli or Baculovirus) complexed with NS4A-2; RETS1 substrate
Method: NS3 Complex Formation with NS4A-2.
Recombinant E. coli or Baculovirus full-length NS3 was diluted to 3.33 μM with assay buffer and transferred material to an eppendorf tube and place in water bath in 4° C. refrigerator. The appropriate amount of NS4A-2 to 8.3 mM in assay buffer was added to equal the volume of NS3 in step 2.1.1 (conversion factor—3.8 mg/272 μL assay buffer). The material was transferred to an eppendorf tube and place in water bath in 4° C. refrigerator.
After equilibration to 4° C., equal volumes of NS3 and NS4A-2 solutions were combined in an eppendorf tube, mix gently with a manual pipettor, and incubate mixture for 15 minutes in the 4° C. water bath. Final concentrations in the mixture are 1.67 μM NS3, 4.15 mM NS4A-2 (2485-fold molar excess NS4A-2).
After 15 minutes at 4° C., the NS3/NS4A-2 eppendorf tube was removed and place it in a room temperature water bath for 10 minutes. NS3/NS4A-2 was alliquoted at appropriate volumes and store at −80° C. (E. coli NS3 run at 2 nM in assay, aliquot at 25 μL. BV NS3 run at 3 nM in assay, aliquot at 30 μL).
Sample compounds were dissolved to 10 mM in DMSO then diluted to 2.5 mM (1:4) in DMSO. Typically, compounds were added to an assay plate at 2.5 mM concentration, yielding upon dilution a starting concentration of 50 microM in the assay inhibition curve. Compounds were serial diluted in assay buffer to provide test solutions at lower concentrations.
The E. coli. NS3/NS4A-2 was diluted to 4 nM NS3 (1:417.5 of 1.67 μM stock−18 μL 1.67 μM stock+7497 μL assay buffer). The BV NS3/NS4A-2 was diluted to 6 nM NS3 (1:278.3 of 1.67 μM stock−24 μL 1.67 μM stock+6655 μL assay buffer). Using the manual multichannel pipettor, careful not to introduce bubbles into the plate, add 50 μL assay buffer to wells A01-H01 of a black Costar 96-well polypropylene storage plate.
Using the manual multichannel pipettor, careful not to introduce bubbles into the plate, add 50 μL of diluted NS3/NS4A-2 from step 2.2.6 to wells A02-H12 of plate in step 2.2.7. Using the manual multichannel pipettor, careful not to introduce bubbles into the plate, transfer 25 μL of the wells in drug dilution plate in step 2.2.5 to corresponding wells in assay plate in step 2.2.8. Change tips on multichannel pipettor for each row of compounds transferred. Using the manual multichannel pipettor, careful not to introduce bubbles into the plate, mix the wells from the assay plate in step 2.2.9 by aspirating and dispensing 35 μL of the 75 μL in each well five times. Change tips on multichannel pipettor for each row of wells mixed. Cover plate with a polystyrene plate lid and pre-incubate the plate from step 2.2.10 containing NS3 protease and sample compounds 10 minutes at room temperature. While plate from step 2.2.11 is pre-incubating, dilute RETS1 substrate in a 15 mL polypropylene centrifuge tube. Dilute RETS1 substrate to 8 μM (1:80.75 of 646 μM stock−65 μL 646 μM stock+5184 μL assay buffer).
After the plate in step is done pre-incubating, and using the manual multichannel, add 25 μL of substrate to all wells on the plate. Quickly mix the plate as in step 2.2.10, mixing 65 μL of the 100 μL in the wells.
Read the plate in kinetic mode on the Molecular Devices SpectraMax Gemini XS plate reader. Reader settings: Read time: 30 minutes, Interval: 36 seconds, Reads: 51, Excitation λ: 335 nm, Emission λ: 495 nm, cutoff: 475 nm, Automix: off, Calibrate: once, PMT: high, Reads/well: 6, Vmax pts: 21 or 28/51 depending on length of linearity of reaction
IC50s are determined using a four parameter curve fit equation, and converted to Ki's using the following Km's: Full-length E. coli NS3−2.03 μM Full-length BV NS3−1.74 μM
where Ki=IC50/(1+[S]/Km))

T1 sequence (P27958 1027-1657): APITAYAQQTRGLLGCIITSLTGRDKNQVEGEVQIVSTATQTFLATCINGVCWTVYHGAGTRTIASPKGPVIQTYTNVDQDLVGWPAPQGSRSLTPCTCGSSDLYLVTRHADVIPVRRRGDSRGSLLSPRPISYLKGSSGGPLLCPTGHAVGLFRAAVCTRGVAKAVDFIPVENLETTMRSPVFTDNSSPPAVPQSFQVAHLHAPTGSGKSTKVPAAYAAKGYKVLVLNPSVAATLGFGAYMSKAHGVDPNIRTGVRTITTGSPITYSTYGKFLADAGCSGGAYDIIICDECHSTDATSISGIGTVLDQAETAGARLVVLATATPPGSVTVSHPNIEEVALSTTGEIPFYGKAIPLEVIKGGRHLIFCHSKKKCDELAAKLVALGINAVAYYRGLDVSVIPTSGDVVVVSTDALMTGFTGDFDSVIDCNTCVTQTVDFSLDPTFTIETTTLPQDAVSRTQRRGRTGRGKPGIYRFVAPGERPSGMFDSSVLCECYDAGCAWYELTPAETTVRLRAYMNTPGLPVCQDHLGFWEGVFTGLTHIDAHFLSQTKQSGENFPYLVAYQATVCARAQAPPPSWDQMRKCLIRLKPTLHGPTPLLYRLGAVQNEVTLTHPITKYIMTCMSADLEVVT

Row | SMILES | IC50
1 | C=C[C@@H]1C[C@]1(NC(=O)C1CN(C(=O)OC(C)(C)C)Cc2c[nH]nc21)C(=O)NS(=O)(=O)C1CC1 (mixture of isomers) [Compound 104, Tert-butyl 7-((1R,2S)-1-(cyclopropylsulfonylcarbamoyl)-2-vinylcyclopropylcarbamoyl)-6,7-dihydro-2H-pyrazolo[4,3-c]pyridine-5(4H)-carboxylate] | 10 to 50 µM
2 | C=C[C@@H]1C[C@]1(NC(=O)[C@@H]1C[C@@H](OC(=O)N2Cc3cccc(F)c3C2)CN1C(C)=O)C(=O)NS(=O)(=O)C1CC1 [Compound 90, (3R,5S)-1-acetyl-5-((1R,2S)-1-(cyclopropylsulfonylcarbamoyl)-2-vinylcyclopropylcarbamoyl)pyrrolidin-3-yl 4-fluoroisoindoline-2 carboxylate] | < 0.1 µM
3 | C=C[C@@H]1C[C@]1(NC(=O)[C@@H]1C[C@@H](OC(=O)N2Cc3cccc(F)c3C2)CN1C(=O)CNC(=O)OC(C)(C)C)C(=O)NS(=O)(=O)C1CC1 [Compound 91] | 0.1 to 1 µM
4 | O=C(O)CNC(=O)C1CCCc2c[nH]nc21 (stereo not shown) [Compound 101] | 10 to 50 µM
5 | O=C(CNC(=O)C1CCCc2c[nH]nc21)NS(=O)(=O)C1CC1 (stereo not shown) [Compound 102] | 1 to 10 µM
6 | C=C[C@@H]1C[C@]1(NC(=O)C1CN(C(=O)Cc2ccccc2)Cc2c[nH]nc21)C(=O)NS(=O)(=O)C1CC1 (stereo partly drawn) [Compound 103, N-((1R,2S)-1-(cyclopropylsulfonylcarbamoyl)-2-vinylcyclopropyl)-5-(2-phenylacetyl)-4,5,6,7-tetrahydro-2H-pyrazolo[4,3-c]pyridine-7-carboxamide] | 1 to 10 µM
7 | CCC[C@H](NC(=O)C1CN(C(=O)Cc2ccccc2)Cc2c[nH]nc21)C(=O)NS(=O)(=O)C1CC1 (stereo partly shown) [Compound 106] | 10 to 50 µM
8 | CCC[C@H](NC(=O)C1CNCc2c[nH]nc21)C(=O)NS(=O)(=O)C1CC1 (stereo partly shown) [Compound 107] | 10 to 50 µM
9 | O=C(O)CNC(=O)C1CN(C(=O)Cc2ccccc2)Cc2c[nH]nc21 (stereo not shown) [Compound 108] | 1 to 10 µM
10 | O=C(CNC(=O)C1CNCc2c[nH]nc21)NS(=O)(=O)C1CC1 (stereo not shown) [Compound 109] | 10 to 50 µM
11 | O=C(O)C1CNCc2c[nH]nc21 (stereo not shown) [Compound 110] | 1 to 10 µM
12 | C=C[C@@H]1C[C@]1(NC(=O)C1CNCc2c[nH]nc21)C(=O)NS(=O)(=O)C1CC1 (stereo partly drawn) [Compound 111, N-((1R,2S)-1-(cyclopropylsulfonylcarbamoyl)-2-vinylcyclopropyl)-4,5,6,7-tetrahydro-2H-pyrazolo[4,3-c]pyridine-7-carboxamide hydrochloride] | 10 to 50 µM
13 | O=C(NC1(C(=O)NS(=O)(=O)C2CC2)CCC1)C1CNCc2c[nH]nc21 (stereo not shown) [Compound 112] | 1 to 10 µM
